The subject of data set [1] is Vero cells. Kind of data set: Quantitative cytotoxicity in Vero cells, crystal violet staining of EC50 plates. Particulars: read-out: CC50 Vero, 1 day of compound exposure, crystal violet, * marks limit values.
The next data set concerns RVFV strain MP12. Kind of data set: microbe, parasite or virus in culture. Particulars: read-out: Estimated EC50. Type of data set: cell-based, Rift Valley Fever Virus.
The test system of another data set is HepDES19. Kind of data set: Cytotoxicity in HepDES19 cells, MTS assay. Conditions: read-out: CC50 HepDES19; HepDES19 cells, 3 days, MTS; * marks limit value.
In the next data set the test system is C. neoformans. Kind of data set: Inhibition of C. neoformans growth, limiting dilution assay. The data set is classed as cell-based, Cryptococcus neoformans. Conditions: 48 hours at 35° C., YNB-02.
The test system of data set [2] is RVFV. Nature of the data set: microbe, parasite or virus in culture. Type of data set: cell-based, Rift Valley Fever Virus. Particulars: read-out: RVFV (EC50).
The target of a further data set is T1, human ribonuclease H1 (Homo sapiens, UniProt O60930).
T1 construct: made in house; host or cells: E. coli
T1 sequence (O60930 1-286): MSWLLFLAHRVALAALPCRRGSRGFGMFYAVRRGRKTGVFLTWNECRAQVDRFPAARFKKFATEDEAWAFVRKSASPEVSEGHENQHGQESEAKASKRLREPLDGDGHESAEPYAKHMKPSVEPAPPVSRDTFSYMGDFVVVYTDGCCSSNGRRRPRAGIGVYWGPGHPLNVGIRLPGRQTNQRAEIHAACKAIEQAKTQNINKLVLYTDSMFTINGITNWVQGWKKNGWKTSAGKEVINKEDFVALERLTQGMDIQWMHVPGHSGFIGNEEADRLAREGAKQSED
Kind of data set: biochemical. Type of data set: biochemical. Conditions: read-out: Human RNaseH1 (IC50).

The next data set concerns Staphylococcus spp. Kind of data set: Inhibition of Staphylococcus spp. growth, broth microdilution. The data set is classed as cell-based, S. saprophyticus or S. aureus. Particulars: 16-24 hours, Mueller-Hinton broth; — = no measurable MIC80.
Data set [3] concerns RVFV. Nature of the data set: microbe, parasite or virus in culture. The data set is classed as cell-based, Rift Valley Fever Virus. Conditions: read-out: EC50.
The test system of data set [4] is Vero cells.
The next data set relates to Escherichia coli. Kind of data set: Inhibition of Escherichia coli growth, broth microdilution. Conditions: 16-24 hours, Mueller-Hinton broth; — = inactive. The data set is classed as cell-based.

Read-outs that look alike come from different tables or passages of the source. Bounds are passed on as bounds.

Consider `Cc1ccc(/C=C/C(=O)c2ccccc(=O)c2O)cc1` [Compound 340], for which the CC50 in the data set on Vero cells [1] was determined as 70 µM; in the data set on HepDES19 it was 18.7 µM. Besides, the EC50 in the data set with RVFV strain MP12 is 3 µM; in the data set with RVFV [2], 27.3 µM. Besides, the “C. neoformans (MIC80, μM)” value in the data set with C. neoformans stood at 49 µM. In addition, on human ribonuclease H1, the IC50 is greater than 500 µM.

As to `CCc1cccc(N=C(C)c2c(C)cc(=O)n(O)c2O)c1` [Compound 518], in the data set on Staphylococcus spp., the “Staphylococcus spp. (MIC80, μM)” value amounted to 67 µM. Further, the EC50 with RVFV [3] is 17.2 µM; in the data set on RVFV strain MP12 it was 7 µM; in the data set on RVFV [2], 20 µM. In addition, the CC50 in the data set with A549 cells is 16.5 µM; in the data set with Vero cells [1] it was greater than 120 µM; with HepDES19 it was 91.4 µM; in the data set on Vero cells [4], no less than 120 µM. Further, the “C. neoformans (MIC80, μM)” value in the data set with C. neoformans amounted to 24 µM. For the same molecule, the IC50 on human ribonuclease H1 worked out at 436 µM.

For the molecule `O=C(Cc1ccccc1)Sc1cccccc1=O` [Compound 680], the “Staphylococcus spp. (MIC80, μM)” value in the data set on Staphylococcus spp. was found to be 13 µM. The values for the half-maximal effective concentration (EC50) in the data set with RVFV [3], with RVFV strain MP12 and in the data set with RVFV [2] were 11.6 µM, 0.3 µM and greater than 120 µM, respectively. The CC50 with A549 cells was no less than 120 µM; with Vero cells [1] it was greater than 120 µM; with HepDES19, 95.6 µM; in the data set with Vero cells [4] it was 0.9 µM. Also, in the data set with Escherichia coli, the “E. coli (MIC80, μM)” value amounted to 30 µM. Also, the “C. neoformans (MIC80, μM)” value in the data set on C. neoformans was 0.40 µM. For the same molecule, the IC50 on human ribonuclease H1 amounted to 652 µM.

As to `CC[C@H](C)[C@H](NC(=O)OCC1c2ccccc2-c2ccccc21)C(=O)Sc1cccccc1=O` [Compound 686], the “Staphylococcus spp. (MIC80, μM)” value in the data set on Staphylococcus spp. is 30 µM. Also, the values for the EC50 in the data set with RVFV [3], in the data set on RVFV strain MP12 and in the data set with RVFV [2] were 7.87 µM, 2 µM and greater than 120 µM, respectively. The CC50 is 67.6 µM in the data set on A549 cells, greater than 120 µM in the data set on Vero cells [1], 42.6 µM in the data set on HepDES19 and no less than 120 µM in the data set on Vero cells [4]. In addition, in the data set with C. neoformans, the “C. neoformans (MIC80, μM)” value was 0.85 µM. Also, the IC50 at human ribonuclease H1 was greater than 500 µM.

Values taken from patent US12121500B2, “Inhibitors of Bunyaviridae and uses thereof” (priority 2020, dated 2024).
